Earlier results on one molecule are cited in patent publication US10485808B2, “Selective progesterone receptor modulators (SPRM) and stabilized estrogen level in patient” (BAYER PHARMA AKTIENGESELLSCHAFT, priority 2017, dated 2019).

Where two headings read alike, the source gives them in different places.

For the data set, the system named is patients with Uterine Fibroids (UF). To be noted: cited from earlier work; for Patients with moderate to severe hot flushes: 12-13 weeks of treatment; for Serum estradiol levels after treatment: after 12-13 weeks treatment.

Take `CC(=O)O[C@]1(C(C)=O)CC[C@H]2[C@@H]3CCC4=CC(=O)CCC4=C3[C@@H](c3ccc(N(C)C)cc3)C[C@@]21C` [Ulipristal acetate]: the “Patients with moderate to severe hot flushes” value (5 mg/day) is 11% and the “Patients with moderate to severe hot flushes” value (10 mg/day) is recorded as 10%. For the same molecule, the “Serum estradiol levels after treatment” value is 64 pg/mL (5 mg/day) and 61 pg/mL (10 mg/day). Also, the “Amenorrhoea rate (secondary endpoint)” value is, setting by setting: (5 mg/day) 75%; (10 mg/day) 89%. For the same molecule, the “Hot flushes of any severity” value (5 mg) was 26% and the “Hot flushes of any severity” value (10 mg) was 24%.
